Tested on: SCG neurons
Assay: In vitro protection of SCG neurons from cisplatin killing
Assay type: cell-based, Sprague Dawley rats
Conditions: Rattus norvegicus, Neuron; cisplatin 3 μg/mL, 48 hours, MTS viability; read-out: IC50 (±1 μM), protection of SCG neurons against cisplatin killing
Experimental: The mechanism of cisplatin's anti-cancer action is not fully understood, but is believed to involve DNA binding and […]. Cisplatin is toxic to neurons. The addition of cisplatin (3 μg/mL) to cultured SCG neurons induces apoptosis of upwards of 80% of the neurons. The addition of selected compounds of Formula I to the cellular media, concurrently with cisplatin, protects upwards of 100% of the neurons, at drug concentrations ranging from 1 to 50 μM (see Example 64).
In Vitro Protection of SCG neurons from cisplatin killing. SCG neurons were isolated from day 1 neonatal Sprague Dawley rats, plated at a cell density of 10,000 cells/well, and incubated in Biowhittaker Ultraculture containing 1% Penstrep, 1% L-glutamine, 0.7% ARAC, 3% rat serum, and NGF (50 ng/mL, Calomone Labs) at 37° C., under a 5% CO2 atmosphere. After 5 days the cells were treated with compound and cisplatin (3 μg/mL). Viability was assessed 48 hours later using MTS (Promega) staining.

SMILES: O=c1oc2c(Sc3ccc4ccccc4c3)cc(O)cc2s1 [Compound 23, 5-Hydroxy-7-((2-naphthy)sulfanyl)benzo[1,3]oxathiol-2-one]
- IC50: 15 µM

Reference: US20060234987A1, “Neuroprotective benzo 1 3 oxathiol 2 ones” (priority 2003, published 2006)
